Assay [1] has as its system SH-SY5Y human neuroblastoma cells. In words: MTT proliferation and cell survival assay. The note with it: drug alone: rapamycin 100 ng/ml, doxorubicin 1 μM, dexrazoxane 200 μM; vs control cultures; FIG. 1a. The assay is classed as cell-based. As for the experimental part:
(§1) SH-SY5Y cells were treated with three candidate agents: rapamycin (Rapa) at 100 ng/ml, doxorubicin (Doxo) at 1 μM and Dexrazoxane (DexRaz) at 200 μM and then tested one day (d1) and two days (d2) after treatment for the following 7 parameters, which are indicative of cell cycle defects and “AD-type” pathology:
(§2) In order to evaluate the effect of drug pre-treatment is protecting against the effects of oxidative stress cells were subjected to oxidative stress (by treatment with 120 μM H2O2) in the absence of drug treatment and after treatment with rapamycin or dexrazoxane, and then tested for the same parameters. Results are shown in FIGS. 1-7, panel b (FIG. 1b, FIG. 2b, FIG. 3b, FIG. 4b, FIG. 5b, FIG. 6b, FIG. 7b).
Finally, cells were treated with doxorubicin after treatment with rapamycin or dexrazoxane and then tested for the same parameters, to evaluate the effects of combined treatment. […]
Cell survival and proliferation was assessed by MTT proliferation and cell survival assay, performed according to the manufacturers recommendations (Chemicon International, Ltd., Hampshire, UK) in the final 4 hours of the 24 hours period. The results of the assay were evaluated using an Opsys MR ELISA plate reader (Dynex Technologies, Middlesex, UK) at 570 nm with a reference wavelength of 630 nm.

For assay [2] the test system is unchanged. The assay is described as follows: Apoptosis by flow cytometry (sub-G1 DNA content). The class given is cell-based. The note with it: drug alone: rapamycin 100 ng/ml, doxorubicin 1 μM, dexrazoxane 200 μM, FIG. 2a. The method, then: as §1, §2
(§3) Finally, cells were treated with doxorubicin after treatment with rapamycin or dexrazoxane and then tested for the same parameters, to evaluate the effects of combined treatment. Results are shown in FIGS. 1-7, panel c (FIG. 1c, FIG. 2c, FIG. 3c, FIG. 4c, FIG. 5c, FIG. 6c, FIG. 7c).
(§4) SH-SY5Y human neuroblastoma cells were cultured in Dulbecco's modified Eagle's medium (DMEM)/F12 supplemented with 10% fetal calf serum (FCS, PAA Laboratories, Austria), 2 mM L-glutamine, 100 IU/ml penicillin and 100 μg/ml streptomycin (Gibco) in a humidified incubator at 37° C. and 5% CO2.
(§5) After 24 h incubation the culture medium was replaced by DMEM/F12 with 10% FCS containing various concentrations of drug. The cells were incubated for another 24 or 48 hours.
(§6) The cell cultures were repeated in identical conditions in order to analyze cell cycle kinetics by flow cytometry and to study protein expression.
(§7) The cultures prepared for flow cytometry were harvested after a short incubation with Trypsin EDTA (Sigma) in PBS. Cells were fixed in 70% ice-cold alcohol. Prior to staining with propidium iodide (PI) the samples were washed twice in PBS containing Triton-X at 0.1%. On flow cytometry the ratio of G1 and G2 cells was measured. Cells with sub-G1 DNA content were regarded as the apoptotic fraction.
In general terms: Flow cytometry measures light scatter and fluorescence of single cells or particles in a stream.

Assay [3] has the same test system. The assay is described as follows: Relative lengthening of the G2 phase of the cell cycle by flow cytometry. The assay is classed as cell-based. The method, then: as §1, §2, §3, §4, §5, §6, §7
The next assay relates to AD-related proteins. In words: ELISA of AD-related proteins overall (APP, phospho tau, PHF tau) in SH-SY5Y cell lysates. The assay is classed as cell-based, human. As for the experimental part: as §1, §2, §3, §4, §5, §6
The cultures prepared for protein expression assays were harvested after a short wash with cold PBS by scraping. The collected cells were lysed in 150 μl of lysis buffer containing 50 mM Tris-HCl (pH 7.4), 100 mM NaCl, 1 mM EDTA, 0.5% (v/v) Nonidet P-40, 50 mM NaF, 0.2 mM Na3VO4, 20 μg/ml phenylmethylsulfonyl fluoride, and 5 μg/ml leupeptin, and incubated on ice for 30 min. […] Protein concentration was determined by the Bradford assay. […]
Background: ELISA stands for enzyme-linked immunosorbent assay.

Assay [4] deals with AD-type paired helical filament (PHF) tau protein. The assay is described as follows: ELISA of AD-type PHF tau (Tau2) in SH-SY5Y cell lysates. The assay is classed as cell-based, human. As to conditions: for Expression of AD-type PHF tau: drug alone, FIG. 7a. As for the experimental part:
as §1, §2, §3, §4, §5, §6
(§8) The cultures prepared for protein expression assays were harvested after a short wash with cold PBS by scraping. The collected cells were lysed in 150 μl of lysis buffer containing 50 mM Tris-HCl (pH 7.4), 100 mM NaCl, 1 mM EDTA, 0.5% (v/v) Nonidet P-40, 50 mM NaF, 0.2 mM Na3VO4, 20 μg/ml phenylmethylsulfonyl fluoride, and 5 μg/ml leupeptin, and incubated on ice for 30 min. The cell lysate was centrifuged at 14,000 g for 20 min at 4° C. to remove insoluble pellets. Protein concentration was determined by the Bradford assay. ELISA assays were performed using a panel of antibodies. Secondary antibodies (anti rabbit or anti mouse as appropriate) conjugated to horseradish peroxidase were used.

The subject of assay [5] is AD-type hyperphosphorylated tau protein. The assay is described as follows: ELISA of AD-type hyperphosphorylated tau (AT8) in SH-SY5Y cell lysates. The class given is cell-based, human. The note with it: for Expression of AD-type hyperphosphorylated tau: drug alone, FIG. 6a. The method, then:
as §1, §2, §3, §4, §5, §6, §8

The test system of assay [6] is SH-SY5Y human neuroblastoma cells. In words: Relative lengthening of the G1 phase of the cell cycle by flow cytometry. As to conditions: drug alone, FIG. 3a. The class given is cell-based. The method, then:
as §1, §2
Finally, cells were treated with doxorubicin after treatment with rapamycin or dexrazoxane and then tested for the same parameters, to evaluate the effects of combined treatment. Results are shown in FIGS. 1-7, panel c (FIG. 1c, FIG. 2c, FIG. 3c, FIG. 4c, FIG. 5c, FIG. 6c, FIG. 7c). […]
The cultures prepared for flow cytometry were harvested after a short incubation with Trypsin EDTA (Sigma) in PBS. […] On flow cytometry the ratio of G1 and G2 cells was measured. […]

Assay [7] deals with amyloid precursor protein (APP). The assay is described as follows: ELISA of APP expression in SH-SY5Y cell lysates. The note with it: for Expression of APP: drug alone, FIG. 5a. The assay is classed as cell-based, human. As for the experimental part: as §1, §2, §3, §4, §5, §6, §8
Where [8] appears, read: drug alone, after 1 day (day 2), FIG. 4a.

`COc1cccc2c1C(=O)c1c(O)c3c(c(O)c1C2=O)C[C@@](O)(C(=O)CO)C[C@@H]3O[C@H]1C[C@H](N)[C@H](O)[C@H](C)O1` [doxorubicin]: the “Cell survival and proliferation (cell numbers)” value in assay [1] is “reduced cell numbers”. Also, the Apoptosis entry was “seems to be protective against apoptotic cell death” in assay [2] and “appeared to be protective against apoptosis” in assay [2] (listed as Doxorubicin). For the same compound, the “Length of the G2 phase of the cell cycle” value in assay [3] (drug alone, FIG. 4a) was “lengthening of the G2 phase”; in assay [3] (drug alone, FIG. 4a, listed as Doxorubicin), “lengthening of the G2 phase of the cell cycle”; in assay [3] (setting [8]) it was “G2 inhibitory effect diminished”. Moreover, the “AD-related protein expression (overall)” value in the assay on AD-related proteins (drug alone) is “elevation of AD-related protein expression”. In assay [4], the “Expression of AD-type PHF tau” value is listed as “elevated expression”. The “Expression of AD-type hyperphosphorylated tau” value in assay [5] was “reduction of phospho-tau”. Moreover, the “Length of the G1 phase of the cell cycle” value in assay [6] (after 1 day (day 2)) was “effect on G1 was reversed after 1 day”. The “Expression of APP” value in assay [7] is reported as “elevated expression of APP”.

As for `C[C@@H](CN1CC(=O)NC(=O)C1)N1CC(=O)NC(=O)C1` [dexrazoxane, Dexrazoxane], in assay [1], the “Cell survival and proliferation (cell numbers)” value is on record as “reduced cell numbers only after 2 days of treatment”. Further, the Apoptosis entry in assay [2] is “did not seem to protect cells against apoptotic cell death as efficiently as rapamycin did”; in assay [2] (listed as Dexrazoxane) it was “did not confer protection against cell death on its own”. Also, the “Length of the G2 phase of the cell cycle” value is “massive G2 lengthening on day 2” in assay [3] (setting [8]); “little change in G2 time on day one” in assay [3] (drug alone, day one, FIG. 4a); “increased the G2 lengthening effect of doxorubicin” in assay [3] (drug pre-treatment followed by doxorubicin, FIG. 4c). For the same compound, the “AD-related protein expression (overall)” value in the assay on AD-related proteins (drug alone) is “effectively reduced AD-related protein expression after two days in culture”; with AD-related proteins (drug pre-treatment followed by doxorubicin, summary statement), “protective effects against AD-related protein expression became more robust”. Moreover, the results for the “Expression of AD-type PHF tau” value in assay [4] (day two) and in assay [4] (first day) were “by day two all three proteins were reduced in the cell lysates” and “increased the expression of all three AD-related proteins on the first day”, respectively. For the same compound, the PHF tau formation result in assay [4] (drug pre-treatment followed by doxorubicin, FIG. 7c) is “reduction of the APP and PHF-tau production”. Further, the results for the “Expression of AD-type hyperphosphorylated tau” value in assay [5] (day two) and in assay [5] (first day) were “by day two all three proteins were reduced in the cell lysates” and “increased the expression of all three AD-related proteins on the first day”, respectively. In assay [5] (drug pre-treatment followed by doxorubicin, FIG. 6c), the Phospho-tau production result is recorded as “did not significantly effect the phospho-tau production”. Also, the “Length of the G1 phase of the cell cycle” value in assay [6] is reported as “acceleration of the G1 phase of the cell cycle”. Besides, the “Expression of APP” value in assay [7] (day two) is reported as “by day two all three proteins were reduced in the cell lysates”; in assay [7] (first day), “increased the expression of all three AD-related proteins on the first day”. Also, the APP production entry in assay [7] (drug pre-treatment followed by doxorubicin, FIG. 5c) was “reduction of the APP and PHF-tau production”.

For the origin of these results see patent publication US8921321B2, “Therapeutic strategies for prevention and treatment of alzheimer's disease” (Isis Innovation Ltd., priority 2001, dated 2014).
